In patent publication US20220144847A1, “HETEROCYCLIC COMPOUND, PHARMACEUTICAL COMPOSITION COMPRISING SAME, PREPARATION METHOD THEREFOR, AND USE THEREOF” (Sichuan Kelun-Biotech Biopharmaceutical Co., Ltd., priority 2019, published 2022):

Biological target: RET-V804M (Homo sapiens, UniProt P07949, V804M)
Assay: RET inhibition experiment (HTRF KinEASE-TK kit), mutant RET-V804M
Format: biochemical
Details: 10 nM (Table 2); read-out: Inhibition rate on RET-V804M
Experimental: Experimental method: According to the instructions of the HTRF KinEASE-TK kit (Cisbio), the compounds of the present disclosure were tested for their inhibitory effects on the activity of wild-type RET enzyme, mutant RET enzyme (RET-V804M, RET-V804L, and RET-M918T) and fusion-type RET enzyme (RET-CCDCl6). After pre-incubation of different RET enzymes and different concentrations of the test compounds at room temperature for 30 min, a substrate and adenosine triphosphate (ATP) were added to initiate the reaction. After incubation at room temperature for 40 min, TK antibody-cryptate and streptavidin-XL665 were added, and the test was performed after incubation at room temperature for 45 min. With the solvent group (DMSO) as the negative control and the buffer group (without RET enzyme) as the blank control, the relative inhibitory activity percentages (i.e., inhibition rates) of different concentrations of the compounds were computed as per the following formula:
(§1) Relative inhibitory activity percentage=1−(compound group of different concentrations−blank control)/(negative control−blank control)*100%
(§2) The relative inhibitory activity percentages of different concentrations of the compounds were plotted with respect to the compound concentrations, and the curve was fitted according to a four-parameter model to compute the IC50 value as per the following formula:
(§3) y=min+(max−min)/(1+(x/IC50)^(−Hillslope))
(§4) where y is the relative inhibitory activity percentage, max is the maximum value of the fitted curve, min is the minimum value of the fitted curve, x is the logarithmic concentration of the compound, and Hillslope is the slope of the curve.

RET-V804M, sequence (P07949 29-1114 V804M): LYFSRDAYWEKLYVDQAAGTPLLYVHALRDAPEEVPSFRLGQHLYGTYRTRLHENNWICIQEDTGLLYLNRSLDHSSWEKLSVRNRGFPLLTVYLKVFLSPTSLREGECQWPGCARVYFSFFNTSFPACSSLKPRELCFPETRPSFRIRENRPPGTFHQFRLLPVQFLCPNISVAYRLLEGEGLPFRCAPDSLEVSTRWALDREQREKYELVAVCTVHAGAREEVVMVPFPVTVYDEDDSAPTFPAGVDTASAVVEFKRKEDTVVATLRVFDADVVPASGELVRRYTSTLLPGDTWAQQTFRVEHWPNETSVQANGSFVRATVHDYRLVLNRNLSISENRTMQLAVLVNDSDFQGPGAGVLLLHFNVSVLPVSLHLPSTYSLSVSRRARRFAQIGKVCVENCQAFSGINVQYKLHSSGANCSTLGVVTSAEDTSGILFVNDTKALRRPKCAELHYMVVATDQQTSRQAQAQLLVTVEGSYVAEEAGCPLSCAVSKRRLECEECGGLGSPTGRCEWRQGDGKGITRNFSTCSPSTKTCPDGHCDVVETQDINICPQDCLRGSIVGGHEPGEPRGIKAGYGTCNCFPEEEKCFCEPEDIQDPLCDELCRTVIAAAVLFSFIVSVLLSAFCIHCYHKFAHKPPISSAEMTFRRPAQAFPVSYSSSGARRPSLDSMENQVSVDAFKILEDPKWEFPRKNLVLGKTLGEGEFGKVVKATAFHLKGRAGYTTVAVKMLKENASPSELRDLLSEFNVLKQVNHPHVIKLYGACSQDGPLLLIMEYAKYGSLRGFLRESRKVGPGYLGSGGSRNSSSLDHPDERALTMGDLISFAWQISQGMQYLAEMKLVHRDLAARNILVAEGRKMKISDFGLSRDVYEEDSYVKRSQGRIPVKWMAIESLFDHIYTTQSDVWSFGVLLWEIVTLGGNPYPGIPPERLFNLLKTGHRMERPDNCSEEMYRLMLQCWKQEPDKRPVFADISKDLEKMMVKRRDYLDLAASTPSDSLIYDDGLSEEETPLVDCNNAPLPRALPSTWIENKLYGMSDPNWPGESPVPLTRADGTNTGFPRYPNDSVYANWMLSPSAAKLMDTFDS

Point of comparison: `Cc1cc(Nc2cc(C)[nH]n2)nc(-c2ccc(N3CC4CC(C3)N4Cc3ccc(-n4ncc(Cl)c4C)nc3)nc2)n1` [Compound 28′, 2-(6-(6-((6-(4-chloro-5-methyl-1H-pyrazol-1-yl)pyridin-3-yl)methyl)-3,6-diazabicyclo[3.1.1]heptan-3-yl)pyridin-3-yl)-6-methyl-N-(5-methyl-1H-pyrazol-3-yl)pyrimidin-4-amine], inhibition at 0.01 µM 34%. Against it:
- Cc1cc(Nc2cc(C)[nH]n2)nc(-c2ccc(N3CC4CC(C3)N4Cc3ccc(-n4nccc4OC4CC4)nc3)nc2)n1 [Compound 30, 2-(6-(6-((6-(5-cyclopropoxy-1H-pyrazol-1-yl)pyridin-3-yl)methyl)-3,6-diazabicyclo[3.1.1]heptan-3-yl)pyridin-3-yl)-6-methyl-N-(5-methyl-1H-pyrazol-3-yl)pyrimidin-4-amine] — higher, 88%
- CCc1ccnn1-c1ccc(CN2C3CC2CN(c2ccc(-c4nc(C)cc(Nc5cc(C)[nH]n5)n4)cn2)C3)cn1 [Compound 46, 2-(6-(6-((6-(5-ethyl-1H-pyrazol-1-yl)pyridin-3-yl)methyl)-3,6-diazabicyclo[3.1.1]heptan-3-yl)pyridin-3-yl)-6-methyl-N-(5-methyl-1H-pyrazol-3-yl)pyrimidin-4-amine] — higher, 92%

Same assay, conditions: 100 nM (Table 2); read-out: Inhibition rate on RET-V804M

Point of comparison: `Cc1cc(Nc2cc(C)[nH]n2)nc(-c2ccc(N3CC4CC(C3)N4Cc3ccc(-n4cc(CF)cn4)nc3)nc2)n1` [Compound 126, 2-(6-(6-((6-(4-fluoromethyl-1H-pyrazol-1-yl)pyridin-3-yl)methyl)-3,6-diazabicyclo[3.1.1]heptan-3-yl)pyridin-3-yl)-6-methyl-N-(5-methyl-1H-pyrazol-3-yl)pyrimidin-4-amine], inhibition at 0.1 µM 82%. Against it:
- Cc1cc(Nc2cc(C)[nH]n2)nc(-c2ccc(N3CC4CC(C3)N4Cc3cncc(F)c3)nc2)n1 [Compound 98, 2-(6-(6-((5-fluoropyridin-3-yl)methyl)-3,6-diazabicyclo[3.1.1]heptan-3-yl)pyridin-3-yl)-6-methyl-N-(5-methyl-1H-pyrazol-3-yl)pyrimidin-4-amine] — lower, 63%
- COc1ccc(C(=O)N2CCN(c3ccc(-c4nc(C)cc(Nc5cc(C)[nH]n5)n4)cn3)CC2)cn1 [Compound 110, (6-methoxypyridin-3-yl)(4-(5-(4-methyl-6-((5-methyl-1H-pyrazol-3-yl)amino)pyrimidin-2-yl)pyridin-2-yl)piperazin-1-yl)methanone] — lower, 62%
- COc1ccc(CC(=O)N2CCN(c3ccc(-c4nc(C)cc(Nc5cc(C)[nH]n5)n4)cn3)CC2)cn1 [Compound 111, 2-(6-methoxypyridin-3-yl)-1-(4-(5-(4-methyl-6-((5-methyl-1H-pyrazol-3-yl)amino)pyrimidin-2-yl)pyridin-2-yl)piperazin-1-yl)ethan-1-one] — lower, 46%
- Cc1cc(Nc2cc(C)[nH]n2)nc(-c2ccc(N3CC4CC(C3)N4Cc3ccc(C#N)nc3)nc2)n1 [Compound 117, 5-((3-(5-(4-methyl-6-((5-methyl-1H-pyrazol-3-yl)-amino)pyrimidin-2-yl)pyridin-2-yl)-3,6-diazabicyclo[3.1.1]heptan-6-yl)methyl)-2-cyanopyridine] — lower, 76%
- COc1cncc(CN2C3CC2CN(c2ccc(-c4nc(C)cc(Nc5cc(C)[nH]n5)n4)cn2)C3)c1 [Compound 18, 2-(6-(6-((5-methoxypyridin-3-yl)methyl)-3,6-diazabicyclo[3.1.1]heptan-3-yl)pyridin-3-yl)-6-methyl-N-(5-methyl-1H-pyrazol-3-yl)pyrimidin-4-amine] — lower, 70%
- Cc1ccc(CN2C3CC2CN(c2ccc(-c4nc(C)cc(Nc5cc(C)[nH]n5)n4)cn2)C3)cn1 [Compound 16, 6-methyl-N-(5-methyl-1H-pyrazol-3-yl)-2-(6-(6-((6-methylpyridin-3-yl)methyl)-3,6-diazabicyclo[3.1.1]heptan-3-yl)pyridin-3-yl)pyrimidin-4-amine] — higher, 92%
- Cc1cc(Nc2cc(C)[nH]n2)nc(-c2ccc(N3CC4CC(C3)N4Cc3cnccc3C)nc2)n1 [Compound 21, 6-methyl-N-(5-methyl-1H-pyrazol-3-yl)-2-(6-(6-((4-methylpyridin-3-yl)methyl)-3,6-diazabicyclo[3.1.1]heptan-3-yl)pyridin-3-yl)pyrimidin-4-amine] — lower, 49%
- Cc1cc(Nc2cc(C)[nH]n2)nc(-c2ccc(N3CC4CC(C3)N4Cc3ccc(C(F)(F)F)nc3)nc2)n1 [Compound 118, 6-methyl-N-(5-methyl-1H-pyrazol-3-yl)-2-(6-(6-((6-(trifluoromethyl)pyridin-3-yl)methyl)-3,6-diazabicyclo[3.1.1]heptan-3-yl)pyridin-3-yl)pyrimidin-4-amine] — lower, 74%
- COc1ccc(CN2C3CC2CN(c2ccc(-c4nc(C)cc(Nc5cc(C)[nH]n5)n4)cn2)C3)nc1 [Compound 67, 2-(6-(6-((5-methoxypyridin-2-yl)methyl)-3,6-diazabicyclo[3.1.1]heptan-3-yl)pyridin-3-yl)-6-methyl-N-(5-methyl-1H-pyrazol-3-yl)pyrimidin-4-amine] — the same, 82%
- Cc1cc(Nc2cc(C)[nH]n2)nc(-c2ccc(N3CC4CC(C3)N4Cc3ccc(-n4cc(CO)cn4)nc3)nc2)n1 [Compound 127, (1-(5-((3-(5-(4-methyl-6-((5-methyl-1H-pyrazol-3-yl)amino)pyrimidin-2-yl)pyridin-2-yl)-3,6-diazabicyclo[3.1.1]heptan-6-yl)methyl)pyridin-2-yl)-1H-pyrazol-4-yl)methanol] — higher, 84%
- COc1ccc(CN2CCN(c3ccc(-c4nc(C)cc(Nc5cc(C)[nH]n5)n4)cn3)CC2)cn1 [Compound 49, 2-(6-(4-((6-methoxypyridin-3-yl)methyl)piperazin-1-yl)pyridin-3-yl)-6-methyl-N-(5-methyl-1H-pyrazol-3-yl)pyrimidin-4-amine] — lower, 75%

Same assay, conditions: read-out: Inhibition rate on RET-V804M

Point of comparison: `COc1ccc(C(C)N2C3CC2CN(c2ccc(-c4nc(C)cc(Nc5cc(C)[nH]n5)n4)cn2)C3)cc1` (stereo not drawn) [Compound 50, 2-(6-(6-(1-(4-methoxyphenyl)ethyl)-3,6-diazabicyclo[3.1.1]heptan-3-yl)pyridin-3-yl)-6-methyl-N-(5-methyl-1H-pyrazol-3-yl)pyrimidin-4-amine], inhibition at 0.1 µM 50%. Against it:
- Cc1cc(Nc2cc(C)[nH]n2)nc(-c2ccc(N3CC4CC(C3)N4Cc3ccc(C#N)cc3)nc2)n1 [Compound 85, 4-((3-(5-(4-methyl-6-((5-methyl-1H-pyrazol-3-yl)-amino)pyrimidin-2-yl)pyridin-2-yl)-3,6-diazabicyclo[3.1.1]heptan-6-yl)methyl)benzonitrile] — higher, 77%
- Cc1cc(Nc2cc(C)[nH]n2)nc(-c2ccc(N3CC4CC(C3)N4Cc3ccc(C(F)(F)F)cc3)nc2)n1 [Compound 84, 6-methyl-N-(5-methyl-1H-pyrazol-3-yl)-2-(6-(6-(4-(trifluoromethyl)benzyl)-3,6-diazabicyclo[3.1.1]heptan-3-yl)pyridin-3-yl)pyrimidin-4-amine] — higher, 72%

Same assay, conditions: read-out: The IC50 (nM) for inhibiting V804M

`Cc1cc(Nc2cc(C)[nH]n2)nc(-c2ccc(N3CC4CC(C3)N4Cc3ccc(-n4cc(F)c(C5CC5)n4)nc3)nc2)n1` [Compound 124, 2-(6-(6-((6-(3-cyclopropyl-4-fluoro-1H-pyrazol-1-yl)pyridin-3-yl)methyl)-3,6-diazabicyclo[3.1.1]heptan-3-yl)pyridin-3-yl)-6-methyl-N-(5-methyl-1H-pyrazol-3-yl)pyrimidin-4-amine] showed an IC50 of 10.7 ± 0.98 nM.

Biological target: VEGFR2 (Homo sapiens, UniProt P35968)
Sequence (P35968 20-1356, species assumed): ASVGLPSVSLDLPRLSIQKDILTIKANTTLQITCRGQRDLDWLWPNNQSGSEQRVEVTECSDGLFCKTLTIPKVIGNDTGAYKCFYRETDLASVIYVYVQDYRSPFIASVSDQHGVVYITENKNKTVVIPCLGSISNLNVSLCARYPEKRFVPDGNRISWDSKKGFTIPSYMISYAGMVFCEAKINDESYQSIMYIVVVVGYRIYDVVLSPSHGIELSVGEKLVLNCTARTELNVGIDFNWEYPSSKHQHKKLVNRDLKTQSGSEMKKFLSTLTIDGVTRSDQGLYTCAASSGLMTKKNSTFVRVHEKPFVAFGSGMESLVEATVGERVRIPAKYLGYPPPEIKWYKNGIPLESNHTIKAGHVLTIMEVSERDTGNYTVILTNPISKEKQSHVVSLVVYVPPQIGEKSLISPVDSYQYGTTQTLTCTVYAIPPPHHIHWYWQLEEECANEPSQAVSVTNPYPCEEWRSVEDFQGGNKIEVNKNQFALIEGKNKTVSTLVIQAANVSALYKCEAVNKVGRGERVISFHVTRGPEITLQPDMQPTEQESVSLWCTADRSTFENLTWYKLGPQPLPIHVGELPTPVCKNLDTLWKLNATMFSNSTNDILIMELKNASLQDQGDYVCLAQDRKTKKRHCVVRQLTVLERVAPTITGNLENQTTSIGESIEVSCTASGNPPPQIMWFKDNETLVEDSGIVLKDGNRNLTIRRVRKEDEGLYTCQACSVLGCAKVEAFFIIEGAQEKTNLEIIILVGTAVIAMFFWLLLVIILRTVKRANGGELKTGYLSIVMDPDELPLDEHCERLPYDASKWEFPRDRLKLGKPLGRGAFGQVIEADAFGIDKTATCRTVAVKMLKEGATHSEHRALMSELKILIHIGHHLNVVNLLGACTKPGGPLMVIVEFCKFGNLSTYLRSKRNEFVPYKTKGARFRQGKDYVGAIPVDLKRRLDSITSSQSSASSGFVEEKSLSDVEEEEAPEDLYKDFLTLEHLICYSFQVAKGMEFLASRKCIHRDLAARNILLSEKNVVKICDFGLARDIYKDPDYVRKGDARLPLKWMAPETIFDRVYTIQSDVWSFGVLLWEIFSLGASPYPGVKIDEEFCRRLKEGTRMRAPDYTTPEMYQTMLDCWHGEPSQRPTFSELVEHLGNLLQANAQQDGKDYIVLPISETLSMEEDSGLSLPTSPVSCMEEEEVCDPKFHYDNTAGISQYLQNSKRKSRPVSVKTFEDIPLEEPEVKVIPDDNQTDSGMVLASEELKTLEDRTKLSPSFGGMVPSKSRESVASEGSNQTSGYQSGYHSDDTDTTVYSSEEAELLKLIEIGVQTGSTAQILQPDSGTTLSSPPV
Assay: VEGFR2 inhibition experiment (HTRF KinEASE-TK kit)
Format: biochemical
Details: 30 nM; read-out: Inhibition rate on VEGFR2
Experimental: Experimental method: According to the instructions of the HTRF KinEASE-TK kit (Cisbio), the compounds of the present disclosure were tested for their inhibitory effects on the VEGFR2 enzyme activity. After pre-incubation of the VEGFR2 enzyme and different concentrations of test compounds at room temperature for 30 min, a substrate and adenosine triphosphate (ATP) were added to initiate the reaction. After incubation at room temperature for 40 min, TK antibody-cryptate and streptavidin-XL665 were added, and the test was performed after incubation at room temperature for 45 min. With the solvent group (DMSO) as the negative control and the buffer group (without VEGFR2 enzyme) as the blank control, the relative inhibitory activity percentages (i.e., inhibition rates) of different concentrations of the compounds were computed as per the following formula:
as §1, §2, §3, §4

Point of comparison: `Cc1cc(Nc2cc(C)[nH]n2)nc(-c2ccc(N3CC4CC(C3)N4Cc3ccc(-n4nccc4OC4CC4)nc3)nc2)n1` [Compound 30, 2-(6-(6-((6-(5-cyclopropoxy-1H-pyrazol-1-yl)pyridin-3-yl)methyl)-3,6-diazabicyclo[3.1.1]heptan-3-yl)pyridin-3-yl)-6-methyl-N-(5-methyl-1H-pyrazol-3-yl)pyrimidin-4-amine], inhibition at 0.03 µM 51%. Against it:
- Cc1cc(Nc2cc(C)[nH]n2)nc(-c2ccc(N3CC4CC(C3)N4Cc3ccc(-n4cc(F)c(C5CC5)n4)nc3)nc2)n1 [Compound 124, 2-(6-(6-((6-(3-cyclopropyl-4-fluoro-1H-pyrazol-1-yl)pyridin-3-yl)methyl)-3,6-diazabicyclo[3.1.1]heptan-3-yl)pyridin-3-yl)-6-methyl-N-(5-methyl-1H-pyrazol-3-yl)pyrimidin-4-amine] — lower, 41%

Same assay, conditions: 100 nM; read-out: Inhibition rate on VEGFR2

`Cc1cc(Nc2cc(C)[nH]n2)nc(-c2ccc(N3CC4CC(C3)N4C(C)c3ccc(-n4cc(F)cn4)nc3)nc2)n1` (stereo not drawn) [Compound 52, 2-(6-(6-(1-(6-(4-fluoro-1H-pyrazol-1-yl)pyridin-3-yl)ethyl)-3,6-diazabicyclo[3.1.1]heptan-3-yl)pyridin-3-yl)-6-methyl-N-(5-methyl-1H-pyrazol-3-yl)pyrimidin-4-amine] showed an inhibition at 0.1 µM of -5%.

Same assay, conditions: 300 nM; read-out: Inhibition rate on VEGFR2

Point of comparison: `Cc1cc(Nc2cc(C)[nH]n2)nc(-c2ccc(N3CC4CC(C3)N4C(C)c3ccc(-n4cccn4)nc3)nc2)n1` (stereo not drawn) [Compound 125, 2-(6-(6-(1-(6-(1H-pyrazol-1-yl)pyridin-3-yl)ethyl)-3,6-diazabicyclo[3.1.1]heptan-3-yl)pyridin-3-yl)-6-methyl-N-(5-methyl-1H-pyrazol-3-yl)pyrimidin-4-amine], inhibition at 0.3 µM 44%. Against it:
- CCc1ccnn1-c1ccc(CN2C3CC2CN(c2ccc(-c4nc(C)cc(Nc5cc(C)[nH]n5)n4)cn2)C3)cn1 [Compound 46, 2-(6-(6-((6-(5-ethyl-1H-pyrazol-1-yl)pyridin-3-yl)methyl)-3,6-diazabicyclo[3.1.1]heptan-3-yl)pyridin-3-yl)-6-methyl-N-(5-methyl-1H-pyrazol-3-yl)pyrimidin-4-amine] — higher, 79%
